Measurements as given in patent US20240335508A1, “HYBRID GOLD NANOPARTICLE-LIPID NANOPARTICLES AND METHODS OF USE AND PRODUCTION THEREOF” (THE BOARD OF REGENTS OF THE UNIVERSITY OF OKLAHOMA, priority 2023, published 2024).

System: TOV-112D cells
Assay: DOX AuNSV cytotoxicity, MTS assay
Assay type: cell-based
Conditions: 0.5 and 0.25 μg/mL DOX
Procedure: TOV-112D cells were cultured in RPMI 1640 media containing 10% FBS and 1% penicillin-streptomycin at 37° C. with 5% CO2. Cells were seeded on 96-well plates in 100 μL of media at 7,500 cells per well. The next day, cells were treated in triplicate with NSVs, AuNSVs, DOX, DOX NSVs, and DOX AuNSVs at concentrations of 0.5, 0.25, 0.1, and 0.05 μg/mL DOX equivalence. After 24, 48, and 72 hours of treatment, 10 μL of CellTiter 96® AQueous One Solution Cell Proliferation Assay (MTS) (Promega, Madison, WI) was added to each well and incubated for 3-4 hours. After incubation, the well absorbance was measured at 490 nm with a SPECTROstar plate reader with cell viability calculated from the ratio of absorbance between untreated controls and each treatment group.

In the case of `COc1cccc2c1C(=O)c1c(O)c3c(c(O)c1C2=O)C[C@@](O)(C(=O)CO)C[C@@H]3O[C@H]1C[C@H](N)[C@H](O)[C@H](C)O1` [DOX, Doxorubicin], the Cell viability is reported as “decreased cell viability faster than either the DOX NSV or DOX AuNSV”.
